Source: US12440500B2, “Phytoecdysones and the derivatives thereof for use in the treatment of neuromuscular diseases” (BIOPHYTIS, priority 2019, dated 2025)

Tests used:
[1] = system: muscles Soleus, Plantaris and Tibialis of SMA mice; experiment: Histological analysis of muscle cross-sections (Hematoxylin-Eosin): number and cross-section surface of muscle fibers; assay type: in vivo, mouse
Procedure: At P11, one hour after their last gavage, the treated mice were anaesthetized with pentobarbital 1% at 6 μL/g of mouse then the extensor muscles Soleus, with a mixed typology, extensor Plantaris, with a fast typology, and flexor Tibialis, with a fast typology, were sampled in order to conduct histological or molecular studies. After sampling, the muscles Soleus, Plantaris and Tibialis were included individually in a preservation medium then frozen in cooled isopentane. For each muscle, medial cross-sections 10 μm thick were realized. These sections were stained with Hematoxyline-Eosin, dehydrated and mounted in an inclusion medium. The images of these sections were taken with a microscope (with a magnification ×200). In order to obtain images with an impression of relief, the differential interference contrast technique was used. From these images, the number of muscle fibers of each muscle and the cross-section surface of 20% of these fibers were counted using image processing software (FIG. 2).

[2] = system: SMA mice (FVB/NRj-SmnΔ7/Δ7 huSMN2+/+ 2 copies); experiment: Phenotypic analysis: weight and survival of severe SMA mice under daily gavage; assay type: in vivo, mouse
Text: A severe SMA mouse model was used on an FVB/NRj gene pool, characterized by the invalidation of the exon 7 of the murine gene Smn and expressing 2 copies of the human transgene SMN2 (Smn^Δ7/Δ7; huSMN2^+/+) (Hsieh et al., 2000). The mice resulting from these crossings having the “FVB/NRj-Smn^Δ7/Δ7 huSMN2^+/+ 2 copies” genotype are described as “SMA”. These mice are characterized by progressive growth failure which is observed starting from 4 days post-natal and have a degeneration of about 50% of the motor neurons of the ventral horn of the spinal cord at the end of life, progressive muscular atrophy and an average lifespan of about 12 days (Hsieh et al., 2000). The mice having the “FVB/NRj-Smn^+/Δ7 huSMN2^++ 2 copies” genotype have no particular phenotype and are used as so-called “control” mice. The mice were treated via daily gavage of a dose of 50 mg/kg, either with the molecule BIO101 complexed to a vehicle (cyclodextrin in the present case), or with the vehicle alone (VH). The weight and the survival were analyzed on a daily basis until P11. In the rest of the description, n corresponds to the size of the sample and p corresponds to the “p value” used to quantify the statistical significance of a result.
The same type II murine model was used to characterize the phenotypic effects of the molecule BIO103 in a severe SMA model. The mice were treated via daily gavage of a dose of 50 mg/kg, either with the molecule BIO103 complexed with the vehicle (cyclodextrin in the present case), or with the vehicle alone (VH). The weight and the survival were analyzed on a daily basis until P11.

murine myotubes C2C12 = murine myotubes C2C12 in vitro; cited from earlier work
muscles = details: rats in vivo; cited from earlier work
[3] = young athletes; cited from earlier work

SMILES | atrophy of the muscle fibers (cross-section surface) in relation to healthy control mice ([1]; Plantaris, P11, SMA mice treated P0 to P11 (SMA vehicle 46%)) | atrophy of the muscle fibers (cross-section surface) in relation to healthy control mice ([1]; Soleus, P11, SMA mice treated P0 to P11 (SMA vehicle 50.2%)) | atrophy of the muscle fibers (cross-section surface) in relation to healthy control mice ([1]; Tibialis, P11, SMA mice treated P0 to P11 (SMA vehicle 56.1%)) | proportion of fibers with cross-section surface greater than 400 μm^2 ([1]; Tibialis, versus SMA vehicle) | proportion of small fibers with cross-section surface less than 200 μm^2 ([1]; Tibialis, versus SMA vehicle, p<0.05) | survival at P11 ([2]; 50 mg/kg daily gavage P0 to P11) | loss of weight of the animals ([2]; 50 mg/kg daily gavage from birth to P11, versus vehicle) | effects on protein syntheses (murine myotubes C2C12) | effects on protein syntheses in muscles (muscles) | muscle mass [3]
CCSCC(=O)[C@H]1CC[C@@]2(O)C3=CC(=O)[C@@H]4C[C@@H](O)[C@@H](O)C[C@]4(C)C3CC[C@]12C (stereo partly drawn) [BIO103, (2S,3R,5R,10R,13R,14S,17S)-17-(2-ethylsulfanylacetyl)-2,3,14-trihydroxy-10,13-dimethyl-2,3,4,5,9,11,12,15,16,17-decahydro-1H-cyclopenta[a]phenanthren-6-one] | 15.3% | 37.1% | 22.1% | significant increase | decreases significantly | 66.6% | tends to limit |  |  | 
CC(C)(O)CC[C@@H](O)[C@](C)(O)[C@H]1CC[C@@]2(O)C3=CC(=O)[C@@H]4C[C@@H](O)[C@@H](O)C[C@]4(C)[C@H]3CC[C@]12C [20-hydroxyecdysone] |  |  |  |  |  |  |  | stimulating effects | stimulating effects | favors the increase
